What all share (assay type): cell-based
One assay concerns S. aureus F-137. In words: Antibacterial activity (MIC, agar dilution, standard method of Japan Society of Chemotherapy) against S. aureus F-137*. The note with it: Staphylococcus aureus, F137; S. aureus F-137, β-lactamase-producing bacteria; Mueller Hinton agar, 37° C., 20 hours, 10^6 cells/plate. From the text: (§1) According to the standard method of Japan Society of Chemotherapy [CHEMOTHERAPY, vol.
*: β-lactamase-producing bacteria
(In agar dilution the substance is mixed into plates at graded concentrations.)

In the next assay the test system is S. aureus F-597. In words: Antibacterial activity (MIC, agar dilution, standard method of Japan Society of Chemotherapy) against S. aureus F-597**. The note with it: Staphylococcus aureus; S. aureus F-597, MRSA (methicillin-resistant S. aureus); Mueller Hinton agar, 37° C., 20 hours, 10^6 cells/plate.
From the text: as §1
**: MRSA (methicillin-resistant S. aureus)

In the next assay the test system is S. aureus FDA 209P. The assay is described as follows: Antibacterial activity (MIC, agar dilution, standard method of Japan Society of Chemotherapy) against S. aureus FDA 209P. The settings on record: Staphylococcus aureus, FDA209P.
From the text: as §1

For another assay, the system named is E. coli NIHJ JC-2. The assay is described as follows: Antibacterial activity (MIC, agar dilution, standard method of Japan Society of Chemotherapy) against E. coli NIHJ JC-2. The note with it: Escherichia coli.
From the text: as §1

As usually defined, the MIC is the smallest concentration in the dilution series that meets the test's criterion for growth inhibition.

In brackets after ≈: the same amount, converted by molar mass. Read-outs that look alike come from different tables or passages of the source.

Take `Cc1c(-c2ccc3c(c2)CNC3)c(F)cc2c(=O)c(C(=O)O)cn(C3CC3)c12` [Compound A, 1-cyclopropyl-6-fluoro-7-(isoindolin-5-yl)-8-methyl-1,4-dihydro-4-oxoquinoline-3-carboxylic acid]: the MIC against S. aureus F-137 is at most 0.05 µg/mL; in the assay on S. aureus F-597 it was at most 0.05 µg/mL; in the assay on S. aureus FDA 209P (S. aureus FDA 209P, Mueller Hinton agar, 37° C., 20 hours, 10^6 cells/plate, read-out: MIC), at most 0.05 µg/mL; with E. coli NIHJ JC-2 (NIHJJC2, E. coli NIHJ JC-2, Mueller Hinton agar, 37° C., 20 hours, 10^6 cells/plate, read-out: MIC) it was at most 0.05 µg/mL.
On to `O=C(O)c1cn(C2CC2)c2cc(N3CCNCC3)c(F)cc2c1=O` [Compound B, 1-cyclopropyl-6-fluoro-7-(1-piperazinyl)-1,4-dihydro-4-oxoquinoline-3-carboxylic acid, reference compound], for which the MIC is 0.2 µg/mL (≈ 0.604 µM) in the assay with S. aureus FDA 209P (20 h) and at most 0.05 µg/mL against E. coli NIHJ JC-2 (NIHJJC2, 20 h).

The record behind these values is patent publication US5935952A, “Quinolone- or naphthylidone-carboxylic acid derivates or their salts” (Toyama Chemical Co., LTD., priority 1994, dated 1999).
